Experimental data taken from ChEMBL document CHEMBL1201862, “PubChem BioAssay data set” (2004).
Where “and” joins values, the source holds several entries; their conditions need not be identical. Equal entries are not always repeated.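 Where inhibition never reached the appropriate level, the endpoint shown equals the highest concentration tested. Otherwise, values were interpolated linearly from a five-concentration, 48-hour dose response in 96-well plates. GI50 is the concentration that inhibits growth by half.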 Calls of active or inactive are those of the source. Rule as the data show it: active = GI50 up to about 1.1 µM and inactive = higher.

Key:
Experiment in all cases: NCI-60 cell line screen, 48 h
ACHN = system: ACHN
SF-268 = system: SF-268
SNB-75 = system: SNB-75
CCRF-CEM = system: CCRF-CEM
HOP-62 = system: HOP-62
786-0 = system: 786-0
K562 = system: K562
TK-10 = system: TK-10
SK-MEL-2 = system: SK-MEL-2
IGROV-1 = system: IGROV-1
NCI-H226 = system: NCI-H226
MOLT-4 = system: MOLT-4
OVCAR-5 = system: OVCAR-5
SK-MEL-28 = system: SK-MEL-28
SK-OV-3 = system: SK-OV-3
HOP-18 = system: HOP-18
NCI-H522 = system: NCI-H522
MCF7 = system: MCF7
BT-549 = system: BT-549
MDA-MB-435 = system: MDA-MB-435

Row | SMILES | GI50 (ACHN) | GI50 (SF-268) | GI50 (SNB-75) | GI50 (CCRF-CEM) | GI50 (HOP-62) | GI50 (786-0) | GI50 (K562) | GI50 (TK-10) | GI50 (SK-MEL-2) | GI50 (IGROV-1) | GI50 (NCI-H226) | GI50 (MOLT-4) | GI50 (OVCAR-5) | GI50 (SK-MEL-28) | GI50 (SK-OV-3) | GI50 (HOP-18) | GI50 (NCI-H522) | GI50 (MCF7) | GI50 (BT-549) | GI50 (MDA-MB-435)
1 | COc1ccc(N2C(=O)C3c4[nH]c5ccccc5c4C4CCCCCCC4C3C2=O)cc1 (stereo unspecified) | 6.38 µM (inactive) | 12.7 µM (inactive) | 11.9 µM (inactive) | 4.12 µM (inactive) | 8.22 µM (inactive) | 3.13 µM (inactive) | 10.1 µM (inactive) | 20.1 µM (inactive) | 26.2 µM (inactive) | 18.2 µM (inactive) | 12.4 µM (inactive) | 8 µM (inactive) | > 52.1 µM (inactive) | 18.8 µM (inactive) | 14.4 µM (inactive) | 1.57 µM (inactive) | 13.9 µM (inactive) | – | – | –
2 | CCOC(=O)CCC1(C(=O)OC)CCCC1=O (stereo unspecified) | > 100 µM (inactive) | > 100 µM (inactive) | > 100 µM (inactive) | > 10 µM (inactive) | > 100 µM (inactive) | > 100 µM (inactive) | > 100 µM (inactive) | > 100 µM (inactive) | > 100 µM (inactive) | > 100 µM (inactive) | – | > 100 µM (inactive) | > 100 µM (inactive) | > 100 µM (inactive) | > 100 µM (inactive) | 62.2 µM (inactive) | > 100 µM (inactive) | – | – | –
3 | C/C(=N\OCC(O)CNC(C)C)c1ccc2c(c1)NC(=O)CS2 (stereo unspecified) | > 100 µM (inactive) | > 100 µM (inactive) | 50.6 µM (inactive) | > 100 µM (inactive) | > 100 µM (inactive) | > 100 µM (inactive) | > 100 µM (inactive) | > 100 µM (inactive) | > 100 µM (inactive) | – | > 100 µM (inactive) | > 100 µM (inactive) | > 100 µM (inactive) | > 100 µM (inactive) | > 100 µM (inactive) | > 100 µM (inactive) | > 100 µM (inactive) | – | – | –
4 | CC(C)(O)[C@@H]1CC[C@@]2(C)CCC[C@H](O)[C@H]2C1 | > 100 µM (inactive) | > 100 µM (inactive) | > 100 µM (inactive) | > 100 µM (inactive) | > 100 µM (inactive) | > 100 µM (inactive) | > 100 µM (inactive) | > 100 µM (inactive) | > 100 µM (inactive) | > 100 µM (inactive) | > 100 µM (inactive) | > 100 µM (inactive) | > 100 µM (inactive) | > 100 µM (inactive) | > 100 µM (inactive) | > 100 µM (inactive) | > 100 µM (inactive) | – | – | –
5 | Cc1ccc(Nc2ncnc3sc(SCc4ccccc4)nc23)cc1 | 32 µM (inactive) | > 100 µM (inactive) | > 100 µM (inactive) | > 100 µM (inactive) | > 100 µM (inactive) | > 100 µM (inactive) | > 100 µM (inactive) | 52.4 µM (inactive) | > 100 µM (inactive) | > 100 µM (inactive) | > 100 µM (inactive) | > 100 µM (inactive) | 43.7 µM (inactive) | > 100 µM (inactive) | > 100 µM (inactive) | – | > 100 µM (inactive) | > 100 µM (inactive) | > 100 µM (inactive) | > 100 µM (inactive)
6 | COC(=O)C1CC/C(=N\c2cccc(C(F)(F)F)c2)N1 (stereo unspecified) | > 100 µM (inactive) | > 100 µM (inactive) | > 100 µM (inactive) | > 100 µM (inactive) | > 100 µM (inactive) | > 100 µM (inactive) | > 100 µM (inactive) | > 100 µM (inactive) | > 100 µM (inactive) | > 100 µM (inactive) | > 100 µM (inactive) | > 100 µM (inactive) | > 100 µM (inactive) | > 100 µM (inactive) | > 100 µM (inactive) | > 100 µM (inactive) | > 100 µM (inactive) | – | – | –
7 | COC(=O)/C=C\C(C#N)(C#N)/N=C/c1ccc(Br)s1 | 2.29 µM (inactive) | 18.5 µM (inactive) | 15.2 µM (inactive) | 0.853 µM (active) | 17.6 µM (inactive) | 5.42 µM (inactive) | 4.3 µM (inactive) | 2.38 µM (inactive) | 17.3 µM (inactive) | 14.9 µM (inactive) | 3.18 µM (inactive) | 2.07 µM (inactive) | 9.64 µM (inactive) | 16.1 µM (inactive) | 19.2 µM (inactive) | – | 1.07 µM (active) | 2.47 µM (inactive) | 4.79 µM (inactive) | 5.56 µM (inactive)
8 | O=C1c2ccccc2-c2c3c(cc4ccnc1c24)OCO3 [LIRIODENINE] | 3.94 µM (inactive) and 4.32 µM (inactive) | 6.14 µM (inactive) and 6.03 µM (inactive) | 4.18 µM (inactive) and 6 µM (inactive) | 4.1 µM (inactive) and 2.7 µM (inactive) | 3.89 µM (inactive) | 4.25 µM (inactive) and 7.69 µM (inactive) | 3.42 µM (inactive) and 4.29 µM (inactive) | – | 4.19 µM (inactive) and 6 µM (inactive) | 5.97 µM (inactive) and 3.9 µM (inactive) | 4.69 µM (inactive) and 5.27 µM (inactive) | 3.38 µM (inactive) and 3.67 µM (inactive) | 16.9 µM (inactive) and 11.5 µM (inactive) | 5.58 µM (inactive) and 5.27 µM (inactive) | 22.2 µM (inactive) and 17.9 µM (inactive) | 24.9 µM (inactive) | – | – | – | –
